# What was measured:
# [1] = system: Akt3; experiment: Quantification of nuclear Akt3 immunofluorescence in mammary epithelial cells (HMEC); assay type: cell-based, human; conditions: 600 nM BGB324 (Axl TKI), 1 uM imatinib (cKit TKI), versus vehicle (DMSO), *P<0.05
# Text: Culturing of MDA-MB-231 cells was as described in Example 3. Primary human mammary epithelial cells (HMEC) were isolated as described (Garbe J C, Pepin F, Pelissier F A, Sputova K, Fridriksdottir A J, Guo D E, Villadsen R, Park M, Petersen O W, Borowsky A D, Stampfer M R, Labarge M A. Accumulation of multipotent progenitors with a basal differentiation bias during aging of human mammary epithelia. Cancer Res. 2012 Jul. 15; 72(14):3687-701) Localization of Akt3 (anti-Akt3-FITC, top panels) in MDA-MB-231 and primary human mammary epithelial cells (HMEC) as in Example 17. Nucleus was stained by DAPI (lower panels). Bar: 50 micron
# [2] = system: MCF10A cells; experiment: Mesenchymal phenotype in 2D growth and invasive growth in 3D Matrigel of transduced MCF10A cells treated with Akt inhibitors; assay type: cell-based, human; conditions: inhibitor 10 μM, 12 hours
# Description: (§1) MCF10A cells were cultured and transduced with retroviral constructs expressing myrAkt1, MyrAkt3 or Slug as described in FIGS. 1 and 3. The cells were treated with Akt inhibitors LY294002 (10 μM, Cell Signaling Technology, Cat. #9901) and Akt VIII (10 μM, Merck, Cat. #124018) for 12 hours as indicated. Cells were then either visualized at indicated magnification by phase-contrast microscopy, or seeded for invasive growth in 3D Matrigel as described in Example 3.
# [3] = system: Akt; experiment: Immunoblot of Akt activation (pAkt) in transduced MCF10A cells treated with Akt inhibitor; assay type: cell-based, human; conditions: inhibitor 10 μM, 12 hours
# Description: as §1
# (§2) MCF10A cells were cultured and transduced with retroviral constructs expressing myrAkt1, MyrAkt3 or Slug as described in FIGS. 1 and 3. The cells were treated with Akt inhibitor as described in FIG. 6. SDS/PAGE, immunoblotting and antibodies as described in Examples 1 and 4.
# [4] = system: MCF10A cells; experiment: Immunoblot of EMT markers (N-cadherin, vimentin, E-cadherin) in transduced MCF10A cells treated with Akt inhibitor; assay type: cell-based, human; conditions: inhibitor 10 μM, 12 hours
# Description: as §1, §2
# [5] = system: Akt3; experiment: SureFire assay detecting activated (phosphorylated) Akt3 in cells; assay type: cell-based; conditions: 10 nM insulin for 10 minutes
# Description: A SureFire assay was used to specifically detect activated (phosphorylated) Akt3 in WM115, MCF7 and LNCaP cells. Briefly cells were lysated, and antibodies recognizing phosphorylated Akt (p473) and Akt3 were coupled to acceptor and donor beads as described by the manufacturer (PerkinElmer). Cells were either unstimulated or stimulated with 10 nM insulin for 10 minutes to activate Akt.
compound,measurement,setting,value
"Nc1nc(Nc2ccc3c(c2)CC[C@@H](N2CCCC2)CC3)nn1-c1cc2c(nn1)-c1ccccc1CCC2 [BGB324, 1-(6,7-dihydro-5H-benzo[6,7]cyclohepta[1,2-c]pyridazin-3-yl)-N3-((7-(S)-pyrrolidin-1-yl)-6,7,8,9-tetrahydro-5H-benzo[7]annulene-2-yl)-1H-1,2,4-triazole-3,5-diamine]",Akt3 nuclear localization,[1],inhibit
O=c1[nH]c2ccccc2n1C1CCN(Cc2ccc(-c3nc4cc5nc[nH]c5cc4nc3-c3ccccc3)cc2)CC1 [AKT VIII],mesenchymal phenotype induced by Akt3,[2]; MCF10A cells expressing MyrAkt3,inhibit
same,mesenchymal/invasive phenotype induced by Slug in 2D and 3D growth,"[2]; MCF10A cells expressing Slug, 2D culture and 3D Matrigel",inhibit
same,Akt activation (pAkt),[3],fully inhibit
same,mesenchymal marker N-cadherin expression,[4],significant reduction
same,mesenchymal marker vimentin expression,[4],significant reduction
same,re-expression of the epithelial marker E-cadherin,[4],Neither inhibitor led to re-expression
same,reversal of the mesenchymal phenotype / inhibition of EMT,[4],partially reverse
insulin: stimulus used to activate Akt in the SureFire assay,Akt3 activity (phosphorylation) signal,[5]; LNCaP prostate cells,no signal
same,Akt3 activity (phosphorylation) signal,[5]; MCF7 breast epithelial cells,no signal
same,Akt3 activity (phosphorylation),[5]; WM115 melanoma cells,significantly induce

# Reference: patent publication US10317405B2, “Methods of detecting Akt3 and administering Ax1 inhibitor” (BERGENBIO ASA, priority 2012, dated 2019)
